The values that follow come from US9975918B2 (Van Andel Research Institute, priority 2013, dated 2018).

Substitutions are numbered along the chain they refer to.

For series [1] the following is noted: when used at high concentration; cited from earlier work.
The test system of series [2] is GR Q642 mutations (Q642A, Q642F, Q642E, Q642K). Briefly: MMTV-Luc transactivation assay with the other Q642 mutations. The class given is cell-based. To be noted: MF 1 nM, DEX 10 nM.
The target in series [3] is T1, GR (Homo sapiens, UniProt P04150).
T1 construct: expressed in transfected cells; host or cells: AD293 cells
T1 sequence (P04150 1-777): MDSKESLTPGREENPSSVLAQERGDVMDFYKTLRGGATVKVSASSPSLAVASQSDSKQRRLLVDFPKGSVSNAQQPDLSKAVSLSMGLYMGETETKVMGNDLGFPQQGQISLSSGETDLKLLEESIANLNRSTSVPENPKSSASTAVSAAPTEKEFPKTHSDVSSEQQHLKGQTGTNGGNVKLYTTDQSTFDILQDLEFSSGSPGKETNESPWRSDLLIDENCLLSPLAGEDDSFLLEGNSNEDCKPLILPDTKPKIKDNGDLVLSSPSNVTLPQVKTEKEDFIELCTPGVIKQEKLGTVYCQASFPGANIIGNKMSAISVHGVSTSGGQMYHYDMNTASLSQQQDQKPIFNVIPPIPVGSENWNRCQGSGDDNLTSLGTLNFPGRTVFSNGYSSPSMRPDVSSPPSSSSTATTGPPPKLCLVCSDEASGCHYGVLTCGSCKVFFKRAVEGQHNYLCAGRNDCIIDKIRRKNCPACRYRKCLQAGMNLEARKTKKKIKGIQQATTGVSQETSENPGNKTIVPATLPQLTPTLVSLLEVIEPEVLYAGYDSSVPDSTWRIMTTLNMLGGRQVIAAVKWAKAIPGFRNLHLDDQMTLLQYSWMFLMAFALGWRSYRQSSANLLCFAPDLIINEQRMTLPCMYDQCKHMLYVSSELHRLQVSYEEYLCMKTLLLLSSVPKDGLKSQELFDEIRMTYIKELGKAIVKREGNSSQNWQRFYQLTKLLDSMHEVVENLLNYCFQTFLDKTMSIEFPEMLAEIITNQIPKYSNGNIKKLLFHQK
Briefly: MMTV-Luc transactivation (induction) reporter assay in AD293 cells. The class given is cell-based. Particulars: for potency for GR, in words: compounds without 17α furoate; for effect of the 17α furoate on potency and efficacy, in words: relative to the corresponding compound without 17α furoate; for potency compared with reference glucocorticoids, in words: MMTV-Luc, AD293 cells. In general terms: A reporter such as luciferase makes a cellular process visible.

The target of series [4] is T1, GR. Briefly: AP1-Luc transrepression reporter assay in AD293 cells. The series is classed as cell-based.
A further series deals with T2, GR Q642N (Homo sapiens, UniProt P04150, Q642N).
T2 construct: expressed in transfected cells; host or cells: AD293 cells
T2 sequence (P04150 1-777 Q642N): T1 sequence (P04150 1-777) with Q642N
Briefly: MMTV-Luc transactivation assay with Q642N mutant. Particulars: compared with wild type; up to saturation concentration. The class given is cell-based. The protocol: AD293 cells were split at 20,000/well in 24 well plate one day before transfection. For transactivation, 100 ng pHHLuc (MMTV-Luc) plasmid, 0.1 ng pRShGR together with 5 ng phRGtkRenilla were transfected by X-tremeGENE 9 (Roche) into AD293 cells per well. For transreperssion, 10 ng AP1-Luc, 100 ng pRShGR and 5 ng phRGtkRenilla were transfected into AD293 cells per well. One day after transfection, cells were induced by different treatment (steroids or vehicle) 16 hrs overnight.

As for `CC1=C[C@@H]2[C@H]([C@@H](O)C[C@@]3(C)[C@H]2C[C@@H](C)[C@]3(O)C(=O)CO)[C@@]2(C)Cc3cnn(-c4ccccc4)c3C=C12` [DAC, deacylcortivazol], in series [1], the “cytotoxicity, in words” value is “strong cytotoxicity”.

As to `C[C@@H]1C[C@H]2[C@@H]3CCC4=CC(=O)C=C[C@]4(C)[C@@]3(Cl)[C@@H](O)C[C@]2(C)[C@@]1(OC(=O)c1ccco1)C(=O)CCl` [MF, Mometasone Furoate], the “transactivation activity at sub-saturated concentration, in words” value in series [2] is given as “loss of most of the activity”.

Consider `CCNC(=O)[C@@]1(O)CCC2C3CCC4=Cc5c(cnn5-c5cccc(C(=O)NCc6ccccc6)c5)C[C@]4(C)C3[C@@H](O)C[C@@]21C` (some centres unmarked) [VSG02], for which the “potency for GR, in words” value on GR [3] is given as “relatively low potency”.

On to `CCCNC(=O)[C@@]1(O)CCC2C3CCC4=Cc5c(cnn5-c5cccc(C(=O)NCc6ccccc6)c5)C[C@]4(C)C3[C@@H](O)C[C@@]21C` (some centres unmarked) [VSG03], for which the “potency for GR, in words” value at GR [3] was “relatively low potency”.

Take `CCNC(=O)[C@@]1(OC(=O)c2ccco2)CCC2C3CCC4=Cc5c(cnn5-c5cccc(C(=O)NCc6ccccc6)c5)C[C@]4(C)C3[C@@H](O)C[C@@]21C` (some centres unmarked) [VSG10]: the “effect of the 17α furoate on potency and efficacy, in words” value (shortened to “effect of the 17α furoate”) on GR [3] was “greatly increased both GR potency and efficacy”.

As for `CCCNC(=O)[C@@]1(OC(=O)c2ccco2)CCC2C3CCC4=Cc5c(cnn5-c5cccc(C(=O)NCc6ccccc6)c5)C[C@]4(C)C3[C@@H](O)C[C@@]21C` (some centres unmarked) [VSG11], the “effect of the 17α furoate” value on GR [3] is “greatly increased both GR potency and efficacy”.

For `C[C@]12Cc3cnn(-c4cccc(C(=O)NCc5ccccc5)c4)c3C=C1CCC1C2[C@@H](O)C[C@@]2(C)C1CC[C@]2(OC(=O)c1ccco1)C(=O)NCc1ccccc1` (some centres unmarked) [VSG14], at GR [3], the “effect of the 17α furoate” value is “greatly increased both GR potency and efficacy”.

Consider `CCC(=O)O[C@]1(C(=O)NCc2ccccc2)CCC2C3CCC4=Cc5c(cnn5-c5cccc(C(=O)NCc6ccccc6)c5)C[C@]4(C)C3[C@@H](O)C[C@@]21C` (some centres unmarked) [VSG15], for which the “potency for GR, in words” value on GR [3] is listed as “relatively low potency”.

With `CON(C)C(=O)[C@@]1(OC(=O)c2ccco2)CCC2C3CCC4=Cc5c(cnn5-c5ccccc5)C[C@]4(C)C3[C@@H](O)C[C@@]21C` (some centres unmarked) [VSG22], on GR [3], the “potency compared with reference glucocorticoids, in words” value is “slightly weaker than MF”; the “effect of the 17α furoate” value was “greatly increased both potency and efficacy”. Besides, the “EC50 change on replacement of the 17α hydroxyl group by a furoate ester” value on GR [3] (VSG22 vs VSG24) was “greater than 1000 fold”.

Consider `CON(C)C(=O)[C@@]1(OC(=O)c2ccco2)CCC2C3CCC4=Cc5c(cnn5-c5ccccc5)C[C@]4(C)C3[C@@H](O)C[C@@]21C` (some centres unmarked) [VSG24F], for which, on GR [3], the “potency compared with reference glucocorticoids, in words” value is “better than those of DEX and DAC”.

`CON(C)C(=O)[C@@]1(O)CCC2C3CCC4=Cc5c(cnn5-c5ccccc5)C[C@]4(C)C3[C@@H](O)C[C@@]21C` (some centres unmarked) [VSG24]: the “activity in the MMTV reporter assay, in words” value on GR [3] was “almost no activity”.

With `C[C@]12CCC(=O)C=C1CC[C@@H]1[C@@H]2[C@@H](O)C[C@@]2(C)[C@H]1CC[C@]2(O)C(=O)CO` [cortisol, Cortisol], the “potency compared with DEX, transrepression, in words” value at GR [4] is “much weaker than DEX”. The “full dose-response curve of Q642N, in words” value at GR Q642N is “inactive”. Also, the “efficacy as % of the efficacy of DEX, transactivation” value at GR [3] (at its saturation concentration (10 μM)) is recorded as 80%.

As to `C[C@]12C=CC(=O)C=C1CC[C@@H]1[C@@H]2[C@@H](O)C[C@@]2(C)[C@H]1CC[C@]2(O)C(=O)CO` [prednisolone, reference compound], the “leftward shift of the cortisol dose-response curve” value at GR [3] (transactivation, relative to cortisol) is “about 5 fold”.
